# From patent publication US20180289666A1, “FLAVONOLIGNANS FOR TREATMENT OF AUTOIMMUNE INFLAMMATORY DISEASES” (Macau University of Science and Technology, priority 2017, published 2018)
# Columns and labels:
# [1] = tested on: MCD diet induced NASH mice; experiment: MCD diet induced NASH mice: body and liver weight, liver histology, serum and liver biomarkers; type: in vivo, C57Bl/6 mice; settings: for Ballooning (histological score) / Inflammation (histological score) / Steatosis (histological score): MCD diet induced NASH mice, n = 6-8
# Experimental: Male wild-type (WT) mice C57Bl/6 were fed either MCS chow diet (Trophic Animal Feed High-tech Co., Ltd, China 20, #TP 3005GS); MCD diet (Trophic Animal Feed High-tech Co., Ltd, China, #TP 3005G) for 8 weeks. Animals were randomly divided into four groups (n=10): 1) controls, fed a standard control MCS diet; 2) […] fed a high-fat MCD diet; 3) rats fed the MCD diet treated with Silybin (150 mg/kg, oral) and 4) rats fed the MCD diet treated with Silybin (300 mg/kg, oral). Silybin was dissolved with solvent of 35% PEG400: 15% Cremophor EL: 5% ethanol: 45% saline. Body weight was intermittently monitored during the diet-induction period and every two or three days during the intervention period.
# At the end of the 8 weeks, mice were sacrificed under ether anesthesia. The liver were immediately removed and weighed. A large portion of liver was snap-frozen in the liquid N2 with remaining tissue was fixed in 10% buffer formalin, processed and embedded in paraffin for histological examination after H&E staining. For evaluation of steatohepatitis, the level of ALT, AST, TG, and TC were determined according to manufacturer's instructions with commercial kits. Moreover, histological assessment and scoring according to standardized criteria were carried out by a pathologist blinded to the study (Kleiner, D. E., et al., Hepatology, 2005, 41(6): p. 1313-21). The cytokines levels in serum were measured using commercially available ELISA kits including TNF-α, and IL-6 as well as SOD.
# [2] = tested on: MCD diet induced NASH mice; experiment: Plasma metabolomics by LC-MS/MS in MCD diet induced NASH mice; type: in vivo, C57Bl/6 mice; settings: Silybin 300 mg/kg, * P < 0.05, ** P < 0.01
# Experimental: The plasma sample (200 μL) was thawed on ice for 5 min prior to sample preparation and was mixed with 200 μL of 10 mM N-ethylmaleimide (NEM) in PBS buffer solution and 1000 μL of methanol containing internal standard (I.S.) Phe-d5 in 10 ng/ml. This mixture was incubated at −20° C. for 20 min, and then centrifuged at 12000 rpm for 10 min at 4° C. The supernatant was completely dried under nitrogen flow (Pressure Blowing Concentrator, Tokyo Rikakika, Tokyo, Japan) and reconstituted with distilled water.
# LC-MS/MS analysis was performed on A Waters ACQUITY UPLC coupled with a 4000 Q-TRAP mass spectrometer. Chromatographic separation was carried on a Waters X Bridge™ BEH C18 analytical column (2.5 μm, 3.0×100 mm; Waters, Torrance, Calif.) with a mobile phase composed of 0.1% formic acid water (solvent A) and methanol (solvent B) which was running in a gradient program: 0-3.0 min (0%-1% B); 3.0-10.0 min (1-3% B); 10.0-14.0 min (3-50% B); 14.0-18.0 min (50-95% B); 18.0-22.0 min (95-0% B); followed by a 3-min re-equilibration step. The injection volume was 10 μl at 4° C. and flow rate was 0.6 ml/min. Electrospray (ESI) source were used in both positive and negative ion mode. The source parameters were set as follows: gas temperature: 450° C.; the ion spray voltage, ±4500 V; ion source gas 1 (nebulizer gas) 40 psi (N2); ion source gas 2 (auxiliary gas), 40 psi (N2); curtain gas: 20 psi. The MS/MS analysis was acquired in targeted MS/MS (MRM) mode with the collision energy ranging from 10 V to 40 V. All UPLC-MS data were obtained by AB Analyst Software (Version 1.6.2). Table 1 lists the 72 metabolites that are identified in the plasma samples from both AIA and MCD-diet induced NASH animal studies. The intensity of each ion was normalized with respect to peak area of I.S. for each chromatogram prior to multivariate statistical analysis.
# The normalized data were exported and further processed by PCA and PLS-DA using a multivariate analysis package SIMCA-P software (Umea, Sweden). Model quality was evaluated based on the relevant values of R^2 and Q^2. Potential markers of interest were extracted from the values of variable importance in the projections (VIP>1), which were constructed from PLS-DA analysis. P values were obtained from Student's t-test (P<0.05). Hierarchical clustering analysis (HCA) was performed using bioinformatics software Multi Experiment Viewer (The Institute of Genomic Research, MA, USA) for visualization and organization of metabolite profiles.
# Plasma samples of MCD-diet model were analyzed by LC-MS/MS for better understanding the functional metabolism in NASH model as well as the mechanism of Silybin treatment. […] OPLS-DA (R^2X=0.877, Q^2=0.749) was also used to identify and rank signature metabolites explaining most of the variance of metabolomes among the control, model and treatment group based on VIP scores and/or P value (FIG. 9). Unsupervised hierarchical clustering of this metabolite set classified NASH vs. control mice with 100% accuracy in both cohorts. A 15-metabolite signature with top-ranked VIP scores (VIP>1.0) separated control, model and Silybin treatment groups (p<0.05) was identified in Table 18 that distinguish each groups.
# [3] = MCD diet NASH mice, versus vehicle treated MCD diet model group
smiles,measurement,setting,value
COc1cc([C@H]2Oc3cc([C@H]4Oc5cc(O)cc(O)c5C(=O)[C@@H]4O)ccc3O[C@@H]2CO)ccc1O (stereo in doubt) [Silybin],body weight,"[1]; MCD diet NASH mice, Silybin 300 mg/kg",no effect
same,liver/body weight ratio,"[1]; MCD diet NASH mice, Silybin 300 mg/kg, P<0.05",moderate decrease
same,"scores of steatosis, inflammation and ballooning","[1]; MCD diet NASH mice, Silybin treated versus MCD diet group, P<0.01",lower scores
same,cytokines levels,[1]; [3],significantly restored
same,lipid profiles,[1]; [3],significantly restored
same,oxidative stress levels,[1]; [3],significantly restored
same,serum transaminase,[1]; [3],significantly restored
same,Ballooning (histological score),[1]; Silybin 150 mg/kg oral,0.96 ± 0.04
same,Inflammation (histological score),[1]; Silybin 150 mg/kg oral,0.92 ± 0.10
same,Steatosis (histological score),[1]; Silybin 150 mg/kg oral,1.00 ± 0
same,Ballooning (histological score),[1]; Silybin 300 mg/kg oral,0.83 ± 0.09
same,Inflammation (histological score),[1]; Silybin 300 mg/kg oral,0.88 ± 0.12
same,Steatosis (histological score),[1]; Silybin 300 mg/kg oral,0.92 ± 0.13
same,Trend SB300 VS Model: Malondialdehyde (MDA),[2],↓**
same,"Trend SB300 VS Model: 4-(2-aminophenyl)-2,4-dioxobutanoic acid",[2]; plasma,↓*
same,Trend SB300 VS Model: 5-hydroxytryptamine,[2]; plasma,↓**
same,Trend SB300 VS Model: GSH,[2]; plasma,↑*
same,Trend SB300 VS Model: GSH/GSSG,[2]; plasma,↑*
same,Trend SB300 VS Model: GSSG,[2]; plasma,↓*
same,Trend SB300 VS Model: Glycochenodeoxycholic acid(GCDCA),[2]; plasma,↓*
same,Trend SB300 VS Model: L-Kynurenine,[2]; plasma,↑**
same,Trend SB300 VS Model: LPC(16:1),[2]; plasma,↓*
same,Trend SB300 VS Model: LPC(18:0),[2]; plasma,↑*
same,Trend SB300 VS Model: LPC(20:1),[2]; plasma,↑*
same,Trend SB300 VS Model: LPC(22:6),[2]; plasma,↑*
same,Trend SB300 VS Model: N-Phenylacetylglycine,[2]; plasma,↓*
same,Trend SB300 VS Model: Ophthalmic acid,[2]; plasma,↓*
same,Trend SB300 VS Model: Oxaloacetate,[2]; plasma,↑*
same,Trend SB300 VS Model: Proline,[2]; plasma,↓*
same,Trend SB300 VS Model: Trigonelline,[2]; plasma,↑**
same,Trend SB300 VS Model: Uric acid,[2]; plasma,↓**
same,Trend SB300 VS Model: Uridine,[2]; plasma,↓**
same,Trend SB300 VS Model: Ursodeoxycholic acid (UDCA),[2]; plasma,↓*
